The values below come from publication PMC9133232 (Cell chemical biology, 2022).

For data set [1], the target named is T1, HCMV C-A (Human cytomegalovirus, UniProt P16753, A143V/A209V/C138A/C202A/C84A/C87A). The experiment in a line: biochemical.
A further data set concerns the target T2, WT HCMV Pr (Human cytomegalovirus, UniProt P16753, A143V/A209V).
T2 sequence (P16753 1-256 A143V/A209V): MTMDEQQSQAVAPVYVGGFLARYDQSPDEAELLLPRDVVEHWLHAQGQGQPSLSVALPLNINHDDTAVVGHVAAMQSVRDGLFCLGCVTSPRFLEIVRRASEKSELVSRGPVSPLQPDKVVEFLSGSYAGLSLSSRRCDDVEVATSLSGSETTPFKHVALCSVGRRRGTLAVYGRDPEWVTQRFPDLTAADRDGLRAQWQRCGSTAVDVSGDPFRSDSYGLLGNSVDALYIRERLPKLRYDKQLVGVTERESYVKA
Nature of the data set: biochemical. The data set is classed as biochemical.

Data set [2] has as its target T3, HCMV C-A (C161) (Human cytomegalovirus, UniProt P16753, A143V/A209V/C138A/C202A/C84A/C87A). The data set is classed as binding. Conditions: intact protein LC/MS.
Data set [3] addresses HCMV C-A (HCMV Pr C84A, C87A, C138A, C202A) (Human cytomegalovirus, UniProt P16753, A143V/A209V/C138A/C202A/C84A/C87A). The experiment in a line: biochemical.
The target in data set [4] is T1, HCMV C-A. Conditions: for t1/2 HCMV C-A: 0.693 divided by kinact.
For another data set, the target named is HSV1 Pr (Human herpesvirus 1, UniProt P10210). The experiment in a line: Fluorogenic substrate inhibition assay, HSV1 Pr. The data set is classed as biochemical.
The next data set has as its system EBV Pr. The experiment in a line: Fluorogenic substrate inhibition assay, EBV Pr. It counts as biochemical, Epstein-Barr virus. Conditions: read-out: IC50 EBV Pr; one hour incubation.
Data set [5] has as its target T4, HCMV C-A S225M (Human cytomegalovirus, UniProt P16753, A143V/A209V/C138A/C202A/C84A/C87A/S225M). Nature of the data set: KI and kinact determination, HCMV C-A S225M. The data set is classed as biochemical.
Data set [6] relates to HFF-1 cells. The experiment in a line: Cell death three days post-reinfection. The data set is classed as cell-based, human.
Data set [7] concerns the target T1, HCMV C-A. Nature of the data set: In-gel fluorescence competition assay in HFF-1 cell lysate. It counts as binding.
Data set [8] deals with T1, HCMV C-A. The experiment in a line: Time-course inhibitor labeling by intact protein LC/MS, HCMV C-A. The data set is classed as binding. Conditions: time course in the absence of DTT.
Data set [9] has as its target T4, HCMV C-A S225M. Nature of the data set: Time-course inhibitor labeling by intact protein LC/MS, HCMV C-A S225M dimer. It counts as binding. Conditions: time course in the absence of DTT.
Data set [10] deals with T3, HCMV C-A (C161). The data set is classed as binding. The following applies: 5 μM protein in Tris, 50 μM compound, overnight.
For data set [11], the system named is HFF-1 cells. Nature of the data set: Cytotoxicity determined in parallel to antiviral EC50. Conditions: over the course of the antiviral assay.
Data set [12] addresses T1, HCMV C-A. The experiment in a line: In-gel fluorescence direct detection assay in HFF-1 cell lysate. It counts as binding. Conditions: read-out: EC50 reactivity with HCMV C-A (direct in-gel fluorescence); HFF-1 cell lysates.
Data set [13] deals with Human Cytomegalovirus Protease C84A, C87A, C138A, C202A, S225M (human cytomegalovirus) (UniProt P16753). The experiment in a line: SEC. In general terms: In gel filtration, larger molecules generally elute earlier.

Read-outs that look alike come from different tables or passages of the source. A value given as a limit tells only on which side of the number the result lay.

In turn, `O=C(CCl)Cn1cc(-c2ccccc2)nn1` [Compound 31, 1-Chloro-3-(4-phenyl-1H-1,2,3-triazol-1-yl)propan-2-one] showed a Ki at HCMV C-A [1] of 38 µM. At WT HCMV Pr, the IC50 was determined as 33 µM. Besides, the “reactivity with C161 (labeling of HCMV C-A)” value at HCMV C-A (C161) [2] is listed as “showed reactivity with C161”. The compound further yielded an IC50 in [3] of 25 µM. Moreover, on HCMV C-A [4], the “kinact HCMV C-A” value was 0.026 min⁻¹, the “kinact/KI HCMV C-A” value worked out at 11.3 M⁻¹ s⁻¹ and the “t1/2 HCMV C-A” value turned out to be 26 min.
For `COCCNC(=O)OCc1c(-c2ccccc2)nnn1CC(=O)CCl` [Compound 44, (1-(3-Chloro-2-oxopropyl)-4-phenyl-1H-1,2,3-triazol-5-yl)methyl (2-methoxyethyl)carbamate], the Ki on HCMV C-A [1] turned out to be 29 µM. Besides, the IC50 against WT HCMV Pr was 13 µM; in data set [3], 54 µM; at HSV1 Pr it was 840 µM; in the data set on EBV Pr it was 12 µM. Besides, on HCMV C-A [4], the “kinact HCMV C-A” value stood at 0.022 min⁻¹. For the same compound, the “kinact/KI HCMV C-A” value at HCMV C-A [4] is 12.7 M⁻¹ s⁻¹. The “t1/2 HCMV C-A” value at HCMV C-A [4] is recorded as 31 min.
On HCMV C-A [1], `O=C(CCl)Cn1nnc(-c2ccccc2)c1COC(=O)N1CCOCC1` [Compound 45, (1-(3-Chloro-2-oxopropyl)-4-phenyl-1H-1,2,3-triazol-5-yl)methyl morpholine-4-carboxylate] had a Ki of 26 µM. Besides, the IC50 turned out to be 53 µM at WT HCMV Pr, 66 µM in [3], 670 µM against HSV1 Pr and 4 µM in the data set on EBV Pr. Moreover, the “kinact HCMV C-A” value at HCMV C-A [4] was determined as 0.020 min⁻¹. In addition, the “kinact/KI HCMV C-A” value on HCMV C-A [4] is 12.8 M⁻¹ s⁻¹. The “t1/2 HCMV C-A” value at HCMV C-A [4] was 35 min.
For `O=C(CCl)Cn1cc(-c2ccc([N+](=O)[O-])cc2)nn1` [Compound 34, 1-Chloro-3-(4-(4-nitrophenyl)-1H-1,2,3-triazol-1-yl)propan-2-one], the IC50 worked out at 6 µM at WT HCMV Pr, 22 µM in data set [3] and 51 µM on HSV1 Pr.
As to `O=C(CCl)Cn1nnc(-c2ccccc2)c1COC(=O)NCCN1CCOCC1` [Compound 46, (1-(3-Chloro-2-oxopropyl)-4-phenyl-1H-1,2,3-triazol-5-yl)methyl (2-morpholinoethyl)carbamate], in [3], half-maximal inhibition (IC50) was put at 182 µM.
`O=C(CCl)Cn1nnc(-c2ccccc2)c1COC(=O)NCc1ccccc1` [Compound 43, (1-(3-Chloro-2-oxopropyl)-4-phenyl-1H-1,2,3-triazol-5-yl)methyl benzylcarbamate]: on HCMV C-A [1], the Ki was 9 µM. The “kinact HCMV C-A S225M” value on HCMV C-A S225M [5] was 0.011 min⁻¹. In the data set on HFF-1 cells [6], the “cell death three days post-reinfection” value was “minimal”. Also, on HCMV C-A [7], the EC50 amounted to 3 µM. In addition, the IC50 on WT HCMV Pr was 4 µM; in data set [3] it was 33 µM; on HSV1 Pr, greater than 1000 µM; in the data set with EBV Pr, 2 µM. On HCMV C-A [8], the “final protein labeling HCMV C-A” value came to 100%. Besides, on HCMV C-A S225M [9], the “final protein labeling HCMV C-A S225M” value is 100%. At HCMV C-A (C161) [10], the “labeling of HCMV C-A at C161” value is 100%. Further, on HCMV C-A [4], the “kinact HCMV C-A” value came out at 0.024 min⁻¹. Moreover, the “kinact/KI HCMV C-A” value on HCMV C-A [4] amounted to 45 M⁻¹ s⁻¹. Further, the “t1/2 HCMV C-A” value at HCMV C-A [4] was 29 min. Besides, in the data set with HFF-1 cells [11], the “CC50 in parallel to antiviral EC50” value is 11 μΜ.
For the compound `C#CCNC(=O)OCc1c(-c2ccccc2)nnn1CC(=O)CCl` [Compound 48], the EC50 at HCMV C-A [12] was found to be 4 µM. The IC50 on WT HCMV Pr (read-out: IC50 WT HCMV Pr, one hour incubation) turned out to be 8 µM.
As for `O=C(CCl)Cn1cc(-c2ccc(Br)cc2)nn1` [Compound 36, 1-(4-(4-Bromophenyl)-1H-1,2,3-triazol-1-yl)-3-chloropropan-2-one], the IC50 came to 5 µM against WT HCMV Pr, 25 µM in data set [3], 35 µM against HSV1 Pr and 17 µM with EBV Pr.
Take `CN(C)C(=O)OCc1c(-c2ccccc2)nnn1CC(=O)CCl` [Compound 42, (1-(3-Chloro-2-oxopropyl)-4-phenyl-1H-1,2,3-triazol-5-yl)methyl dimethylcarbamate]: the IC50 at WT HCMV Pr is 33 µM; in [3], 101 µM; against HSV1 Pr, greater than 1000 µM.
Consider `O=C(CCl)Cn1cc(-c2cccc(Cl)c2)nn1` [Compound 38, 1-Chloro-3-(4-(3-chlorophenyl)-1H-1,2,3-triazol-1-yl)propan-2-one], for which the IC50 stood at 6 µM against WT HCMV Pr, 30 µM in [3], 145 µM against HSV1 Pr and 8 µM in the data set with EBV Pr.
For `N#Cc1ccc(-c2cn(CC(=O)CCl)nn2)cc1` [Compound 35, 4-(1-(3-Chloro-2-oxopropyl)-1H-1,2,3-triazol-4-yl)benzonitrile] the same measures were 11 µM, 33 µM, 207 µM and 21 µM.
`O=C(CCl)Cn1nnc(-c2ccccc2)c1COC(=O)NCCCN1CCCC1=O` [Compound 47, (1-(3-Chloro-2-oxopropyl)-4-phenyl-1H-1,2,3-triazol-5-yl)methyl (3-(2-oxopyrrolidin-1-yl)propyl)carbamate] gave a Ki on HCMV C-A [1] of 21 µM. Besides, inhibition in [3] was half-maximal at 135 µM (IC50). At HCMV C-A [4], the “kinact HCMV C-A” value is 0.016 min⁻¹, the “kinact/KI HCMV C-A” value was 12.7 M⁻¹ s⁻¹ and the “t1/2 HCMV C-A” value worked out at 44 min.
In [13], “Human Cytomegalovirus Protease C84A, C87A, C138A, C202A, S225M (from UniProt P16753 1-256) (enzyme)” came in with a stoichiometry N of 2.
`O=C(CCl)Cn1cc(-c2ccc(Cl)cc2)nn1` [Compound 37, 1-Chloro-3-(4-(4-chlorophenyl)-1H-1,2,3-triazol-1-yl)propan-2-one]: the IC50 against WT HCMV Pr was 5 µM; in [3], 32 µM; on HSV1 Pr it was 98 µM; in the data set on EBV Pr, 11 µM.
Taken in the same sequence, the figures for `CC(=O)Nc1cccc(-c2cn(CC(=O)CCl)nn2)c1` [Compound 39, N-(3-(1-(3-Chloro-2-oxopropyl)-1H-1,2,3-triazol-4-yl)phenyl)acetamide] were 18 µM, 46 µM, 188 µM and 52 µM.
Taken in the same sequence, the figures for `CNC(=O)OCc1c(-c2ccccc2)nnn1CC(=O)CCl` [Compound 41, (1-(3-Chloro-2-oxopropyl)-4-phenyl-1H-1,2,3-triazol-5-yl)methyl methylcarbamate] were 68 µM, 60 µM, greater than 1000 µM and 7 µM.

For orientation: Ki means a measure of affinity in units of concentration, obtained from inhibition or displacement. A lower Ki goes with a stronger hold on the target. One may read the IC50 as the midpoint of a concentration-inhibition curve. Usually EC50 stands for the concentration giving half of the maximal effect. Broadly, the stoichiometry N is the number of molecules, sites or subunits per partner or assembly.
